The subject of data set [1] is human acute lymphoblastic leukemia RS4;11 cells. In words: Cell growth inhibition test against hematopoietic tumor cell lines (XTT), RS4;11. In kind it is cell-based. Particulars: 72 hours culture with compound, read-out: growth inhibitory activity, GI50 value. From the text: (§1) As hematopoietic tumor cell lines, human acute lymphoblastic leukemia RS4;11 cells (ATCC No. CRL-1873), human chronic myeloid leukemia K-562 cells (ATCC No. CCL-243), and human multiple myeloma NCI-H929 cells (ATCC No. CRL-9068) were used. For the culture of the cells, RPMI 1640 Medium (Invitrogen, catalog No. 11875-093) containing 10% fetal bovine serum (Invitrogen, catalog No. 10099-141), 10 mmol/L 4-(2-hydroxyethyl)-1-piperazinethanesulfonic acid (HEPES) buffer (ICN Biomedicals, catalog No. 1688449), 1 mmol/L sodium pyruvate (Invitrogen, catalog No. 11360-070), 4.5 g/L glucose (Sigma-Aldrich, catalog No. G8769), 100 units/mL penicillin (Invitrogen, catalog No. 15140-122) and 100 μg/mL streptomycin (Invitrogen, catalog No. 15140-122) was used. The cells were cultured at 37° C. in a 5% carbon dioxide atmosphere.
(§2) RS4;11 cells (20000 cells/well), K-562 cells (1000 cells/well), or NCI-H929 cells (15000 cells/well) were seeded in each well of 96-well plates (Nunc, catalog No. 167008), and cultured overnight. Test compounds diluted stepwise were added, and the cells were further cultured for 72 hours (final volume: 100 μL/well). Fifty μL XTT labeling mixture of Cell Proliferation Kit II (XTT) (Roche Diagnostics, catalog No. 1465015) was added to each well, and the plates were incubated at 37° C. After 4 hours, absorbance at 490 nm (reference wavelength: 655 nm) was measured with a plate reader (Molecular Device, SpectraMax 340PC^384). Growth ratios of the cells in the wells treated with the test compound was calculated based on the growth ratio of the cells in the control well treated with solvent (dimethyl sulfoxide (DMSO)) for 72 hours, which was defined as 100%.

The target of data set [2] is T1, recombinant human Eg5 motor domain protein (Homo sapiens, UniProt P52732).
T1 construct: A plasmid expressing the motor domain of human Eg5 was constructed; made in house; host or cells: Escherichia coli BL21 (DE3)
T1 sequence (P52732 18-359 limits assumed): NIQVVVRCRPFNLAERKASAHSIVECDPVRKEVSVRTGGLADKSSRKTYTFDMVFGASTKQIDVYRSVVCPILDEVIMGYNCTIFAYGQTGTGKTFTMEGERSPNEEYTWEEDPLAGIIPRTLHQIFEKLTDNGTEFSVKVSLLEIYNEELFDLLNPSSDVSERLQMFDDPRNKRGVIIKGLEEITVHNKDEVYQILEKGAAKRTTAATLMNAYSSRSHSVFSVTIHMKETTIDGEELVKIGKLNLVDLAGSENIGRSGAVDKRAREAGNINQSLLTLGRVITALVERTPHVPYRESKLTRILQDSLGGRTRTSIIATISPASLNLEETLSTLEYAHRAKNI
The experiment in a line: Eg5 enzyme inhibition test (ATPase activity). In kind it is biochemical. Particulars: for inhibition of the ATPase activity of Eg5 (in words): 30° C., 30 minutes, absorbance at 360 nm; for Eg5 inhibitory activity compared with the corresponding racemic mixture (in words): versus Compounds 3, 4, 6, 7, 20, 14, 9, 8, the respectively corresponding racemic mixtures. As for the experimental part:
A recombinant human Eg5 motor domain protein was prepared by referring to the literature [Biochemistry, Vol. 35, p. […] A plasmid expressing the motor domain of human Eg5 was constructed, and transformed into Eseherichia coli BL21 (DE3). The transformant was cultured at 25° C., and when the OD600 reached 0.74, isopropyl-β-D-thiogalactoside was added at a final concentration of 0.5 mmol/L. The transformant was further cultured for 4 hours, and then the culture medium was centrifuged to collect the cells. The cells were suspended in a buffer and ultrasonicated, and then the sonicated solution was centrifuged to recover the supernatant. The supernatant was purified by cation exchange column chromatography to obtain a partially purified sample. Furthermore, the partially purified sample was purified by gel filtration column chromatography to obtain a finally purified sample.
Measurement of the ATPase activity of Eg5 was carried out by referring to the literatures [EMBO Journal, Vol. 13, p. […] Solution A was dispensed into each well of a 96-well plate as 45 μL portions. Solution B was used to serially dilute a test compound. The diluted test compound solutions in a volume of 30 μL were mixed with Solution A added beforehand in each well of the 96-well plate to start the enzymatic reaction. The enzymatic reaction was performed at 30° C. for 30 minutes. […] The relative activity was calculated to calculate IC50 value.

In data set [3] the test system is human chronic myeloid leukemia K-562 cells. The experiment in a line: Cell growth inhibition test against hematopoietic tumor cell lines (XTT), K-562. The class given is cell-based. The following applies: K562, 72 hours culture with compound, read-out: growth inhibitory activity, GI50 value.
Text: as §1, §2
On the technique in general: Tetrazolium dyes change colour on reduction, which living cells bring about.

The subject of data set [4] is human non-Hodgkin's lymphoma SR cells. In words: Cell growth inhibition test on non-Hodgkin's lymphoma cells (XTT), SR. In kind it is cell-based. The following applies: same manner as Test Example 1, read-out: growth inhibitory activity, GI50 value. On the procedure:
as §2
(§3) As cancer cell lines, human acute myeloid leukemia MV-4-11 cells (ATCC No. CRL-9591) and human non-Hodgkin's lymphoma SR cells (ATCC No. CRL-2262) were used. The cells were cultured at 37° C. in a 5% carbon dioxide atmosphere by using the mediums mentioned below, respectively.
(§4) In the same manner as that of Test Example 1, the cells were seeded (8000 to 16000 cells/well, respectively) in each well of 96-well plates (Nunc, catalog No. 167008), and growth ratios of the cells treated with test compounds were calculated. Measurement of absorbance was performed at 3 to 4 hours after the addition of the XTT labeling mixture.

The subject of data set [5] is human multiple myeloma NCI-H929 cells. In words: Cell growth inhibition test against hematopoietic tumor cell lines (XTT), NCI-H929. The following applies: 72 hours culture with compound, read-out: growth inhibitory activity, GI50 value. In kind it is cell-based.
Text: as §1, §2

Data set [6] relates to human acute myeloid leukemia MV-4-11 cells. The experiment in a line: Cell growth inhibition test on acute myeloid leukemia cells (XTT), MV-4-11. Particulars: MV4-11, same manner as Test Example 1, read-out: growth inhibitory activity, GI50 value. In kind it is cell-based. On the procedure: as §2, §3, §4

Where a name gives a salt, the structure may show the parent alone.

A word on the melting point: it is the temperature of the solid-liquid transition. The compound `CC(C)(C)C(=O)NC1=NN(C(=O)C(C)(C)C)C(CN)(c2ccccc2)S1` (stereo not shown) (as salt: hydrochloride) [Compound j, N-[5-Aminomethyl-4-(2,2-dimethylpropionyl)-5-phenyl-4,5-dihydro-1,3,4-thiadiazol-2-yl]-2,2-dimethylpropanamide] returned a melting point of 175 to 182 °C.

`CC(=O)N1N=C(NC(=O)C(C)(C)C)SC1(CCNS(C)(=O)=O)c1ccccc1` (single isomer, unassigned; (-)) [Compound f, (−)-N-[4-Acetyl-5-(2-methanesulfonylaminoethyl)-5-phenyl-4,5-dihydro-1,3,4-thiadiazol-2-yl]-2,2-dimethylpropanamide] had a melting point of 187 to 190 °C.

The term GI50 denotes the concentration giving 50% growth inhibition. In the case of `CC(=O)N1N=C(N2CCCCC2=O)SC1(CCNS(C)(=O)=O)c1ccccc1` (single isomer, unassigned; (-)) [Compound h, (−)-N-{2-[3-Acetyl-5-(2-oxopiperidino)-2-phenyl-2,3-dihydro-1,3,4-thiadiazol-2-yl]ethyl}methanesulfonamide], the melting point is 169 to 171 °C. Further, the GI50 in data set [1] was less than 10 µM. For the same compound, in data set [2], the “inhibition of the ATPase activity of Eg5 (in words)” value is listed as “inhibited the ATPase activity of Eg5 in a concentration-dependent manner” and the “Eg5 inhibitory activity compared with the corresponding racemic mixture (in words)” value is on record as “stronger inhibitory activities”. The GI50 in data set [3] was less than 10 µM. In addition, the GI50 in data set [4] is less than 10 µM. Further, in data set [5], the 50% growth inhibitory concentration (GI50) was less than 10 µM. Besides, the concentration for 50% growth inhibition (GI50) in data set [6] is less than 10 µM.

Regarding `CN(C)CCCS(=O)(=O)NCC1(c2ccccc2)SC(NC(=O)C(C)(C)C)=NN1C(=O)C(C)(C)C` (single isomer, unassigned; (-)) [Compound n, (−)-N-[5-(3-Dimethylaminopropanesulfonylaminomethyl)-4-(2,2-dimethylpropionyl)-5-phenyl-4,5-dihydro-1,3,4-thiadiazol-2-yl]-2,2-dimethylpropanamide], the melting point fell in the range of 92 to 95 °C. In addition, the GI50 in data set [1] is less than 10 µM. For the same compound, the GI50 in data set [3] is less than 10 µM. In data set [4], the GI50 was less than 10 µM. In addition, the 50% growth inhibitory concentration (GI50) in data set [5] is less than 10 µM. In data set [6], the GI50 was less than 10 µM.

The compound `CC(C)(C)C(=O)N1N=C(N2CCCC2=O)SC1(CCNS(C)(=O)=O)c1ccccc1` (single isomer, unassigned; (-)) [Compound c, (−)-N-{2-[3-(2,2-Dimethylpropionyl)-5-(2-oxopyrrolidin-1-yl)-2-phenyl-2,3-dihydro-1,3,4-thiadiazol-2-yl]ethyl}methanesulfonamide] yielded a melting point of 107 to 110 °C.

Turning to `CCC(=O)N1N=C(N2CCCC2=O)SC1(CCNS(C)(=O)=O)c1ccccc1` (single isomer, unassigned; (-)) [Compound e, (−)-N-{2-[5-(2-Oxopyrrolidin-1-yl)-2-phenyl-3-propionyl-2,3-dihydro-1,3,4-thiadiazol-2-yl]ethyl}methanesulfonamide], the melting point was 188 to 191 °C. For the same compound, the GI50 in data set [1] is less than 10 µM. Also, in data set [2], the “inhibition of the ATPase activity of Eg5 (in words)” value was “inhibited the ATPase activity of Eg5 in a concentration-dependent manner” and the “Eg5 inhibitory activity compared with the corresponding racemic mixture (in words)” value is on record as “stronger inhibitory activities”. Besides, the concentration for 50% growth inhibition (GI50) in data set [3] was less than 10 µM. Besides, the GI50 in data set [4] was less than 10 µM. Also, the 50% growth inhibitory concentration (GI50) in data set [5] was less than 10 µM. Further, the concentration for 50% growth inhibition (GI50) in data set [6] was less than 10 µM.

For `CN(C)CCS(=O)(=O)NCC1(c2ccccc2)SC(NC(=O)C(C)(C)C)=NN1C(=O)C(C)(C)C` (single isomer, unassigned; (-)) [Compound m, (−)-N-[5-(2-Dimethylaminoethanesulfonylaminomethyl)-4-(2,2-dimethylpropionyl)-5-phenyl-4,5-dihydro-1,3,4-thiadiazol-2-yl]-2,2-dimethylpropanamide], the melting point was in the range of 101 to 104 °C. In addition, the GI50 in data set [1] was less than 10 µM. For the same compound, in data set [3], the GI50 was less than 10 µM. Also, the concentration for 50% growth inhibition (GI50) in data set [4] is less than 10 µM. Besides, the concentration for 50% growth inhibition (GI50) in data set [5] is less than 10 µM. In data set [6], the concentration for 50% growth inhibition (GI50) was less than 10 µM.

(Values after patent US20080262049A1, “Therapeutic Agent for Hematopoietic Tumor” (KYOWA HAKKO KOGYO CO., LTD., priority 2005, published 2008).)
